The conditions of data set [1]: iso-osmotic with serum/saline; cited from earlier work.
For data set [2] the following is noted: cited from earlier work.
The conditions of data set [3]: cited from earlier work. The source holds these as a separate data set.
The conditions of data set [4]: generally regarded; cited from earlier work.
The nature of data set [5]: Concentration of aqueous solution iso-osmotic with serum/saline. It counts as physicochemical. Particulars: expected from number of molecules, not measured. An excerpt: We preferably select an excipient with a concentration of at least >5.5%, preferably >7%—compounds that could be regarded as weak osmolytic or non-osmolytic active compounds—teaching away from WO 00/36915. The selected concentration values are based upon the clinical results presented for lactose and mannitol. The physiological condition is pH 7.4 and 276 mOsm.
The osmotic pressure is proportional to the concentration of the solute for nonelectrolytes. The osmotic pressures of solutions of different nonelectrolytes are proportional to the number of molecules in each solution. This means—when having the same amount in grams—a disaccharide will have about half the osmotic pressure as a monosaccharide, which could also be seen in table 1. This type of generalisations could not be used for electrolytes. All disaccharides (e.g. trehalose) would be expected to have an osmotic pressure corresponding to a solution of at least >7% and trisaccharides (e.g. melezitose, raffinose) needed higher concentration in order to be iso-osmotic with a saline solution. The carbohydrate myo-inositol would be expected to have a concentration of less than 5% for iso-osmolytic activity with saline.

The test system of another data set is stable asthma patients. To be noted: fifteen stable asthma patients; lactose dry powder alone; no dosage data given; cited from earlier work.

Counter-ions that a name gives are not always drawn.

For the molecule `CCN(CC)CC(=O)Nc1c(C)cccc1C` [Lidocaine-HCl, reference compound], in data set [1], the “Concentration of aqueous solution iso-osmotic with serum (%)” value (from here on “Concentration … (%)”) is on record as 4.4%. Turning to `OC[C@@H](O)[C@@H](O)[C@H](O)[C@H](O)CO` [Mannitol], in data set [1], the “Concentration … (%)” value is 5.1%. On to `OC[C@@H](O)[C@@H](O[C@H]1O[C@H](CO)[C@@H](O)[C@H](O)[C@H]1O)[C@H](O)[C@@H](O)CO` [Maltitol], for which the “Relative humidity at which moisture is absorbed” value in data set [2] (20° C.) was no less than 89%. Moreover, the “Stability of water solution” value in data set [3] (pH 4-9 even at higher temperatures) was “very stable”. In addition, in data set [3] (room temperature and pH 2-9), the “Stability of water solution (time stable)” value is reported as “at least 2 years”. In addition, in data set [4], the “Toxicity, allergenicity, irritancy” value is “nontoxic, nonallergenic and nonirritant”. For the same molecule, the “Concentration … (%)” value in data set [1] is 10%.

Turning to `Cc1cc(C(C)(C)C)c(O)c(C)c1CC1=NCCN1.Cl` [Oxymethazoline-HCl, reference compound], the “Concentration … (%)” value in data set [1] is reported as 4.9%. Regarding `OC[C@@H](O)[C@@H](O[C@@H]1O[C@H](CO)[C@H](O)[C@H](O)[C@H]1O)[C@H](O)[C@@H](O)CO` [Lactitol], in data set [1], the “Concentration … (%)” value is reported as 7%. Regarding `O=C1O[C@H]([C@@H](O)CO)C(O)=C1O` [Ascorbic acid], in data set [1], the “Concentration … (%)” value is given as 5.9%. `O=C(CO)[C@@H](O)[C@H](O)[C@H](O)CO` [Fructose]: the “Concentration … (%)” value in data set [1] is reported as 5.1%. With `O=C[C@H](O)[C@@H](O)[C@@H](O)[C@H](O)CO` [Galactose], in data set [1], the “Concentration … (%)” value was 4.9%. `O[C@H]1[C@H](O)[C@@H](O)[C@H](O)[C@@H](O)[C@H]1O` [myo-inositol]: the “Expected concentration of solution iso-osmotic with saline” value in data set [5] is listed as “less than 5%”. With `OC[C@@H](O)[C@@H](O)[C@H](O)[C@@H](O)CO` [Sorbitol], the “Concentration … (%)” value in data set [1] is 5.5%. On to `O=C1O[C@H]([C@@H](O)CO)C([O-])=C1O.[Na+]` [Sodium ascorbate], for which, in data set [1], the “Concentration … (%)” value is 3.0%. For `OC[C@H]1O[C@@](CO)(O[C@H]2O[C@H](CO)[C@@H](O)[C@H](O)[C@H]2O)[C@@H](O)[C@@H]1O` [Sucrose], the Moisture sensitivity entry in data set [2] (submitted to humidity) was “very moisture sensitive”. Also, in data set [1], the “Concentration … (%)” value is recorded as 9.3%. In the case of `[Cl-].[Na+]` [Sodium chloride], the “Concentration … (%)” value in data set [1] is given as 0.9%. Take `OC[C@H]1O[C@@H](O[C@H]2[C@H](O)[C@@H](O)C(O)O[C@@H]2CO)[C@H](O)[C@@H](O)[C@H]1O` (stereo partly drawn) [Lactose]: the “Bronchoconstriction after inhalation of dry powder” value in the data set on stable asthma patients is listed as “caused bronchoconstriction”. Moreover, the “Concentration … (%)” value in data set [1] was 9.8%. Turning to `OC[C@@H](O)[C@H](O)[C@@H](O)CO` [Xylitol], in data set [1], the “Concentration … (%)” value was 4.6%.

The values are drawn from US20050152847A1, “Novel formulation” (priority 2002, published 2005).
